Results as given in US8748170B2, “Polypeptides derived from cyclin B1 and uses thereof” (priority 2008, dated 2014).

Tested on: CD4+T cells
Assay: CFSE dilution proliferation of CD4+ T cells in PBMC of heavy smokers
Type: cell-based, human
Details: PBMC from 5 heavy smokers negative for lung cancer by CT; peptide approximately 2 μg/ml; 6 days; one or more of the peptides
Text: The amino acid sequence of the whole CB1 protein was synthesized as a series of peptides (generally 12-15 amino acids in length) that overlap by 11 amino acids (each peptide is offset by 4 amino acids). This approach is used when HLA of the subjects being tested is unknown and when there is a potential for multiple reactive peptides restricted by a variety of HLA molecules. It is also useful when the blood collection volumes are too small for dendritic cell generation, and other antigen presenting cells in the peripheral blood are counted on to present peptides without the need for further antigen processing.
Peripheral blood was collected into vaccutainers containing heparin sulfate and processed to obtain peripheral blood mononuclear cells (PBMC) by density centrifugation. PBMC were washed in PBS and labeled with 5 μM CFSE (Invitrogen) in warmed 0.1% FBS in PBS for 10 minutes at 37° C. The CFSE was quenched with 3 volumes of ice cold complete RPMI and incubated for 5 minutes before washes with complete RPMI. PBMC were then resuspended in media containing anti-CD28 and anti-CD49d antibodies for additional costimualtion. Wells coated with anti-CD3 were used as positive controls. Peptides were added at approximately 2 μg/ml. No peptide was added to negative control wells. After 6 days, cells were stained for cell surface markers and tested for proliferation by CFSE dilution using flow cytometry. Peptides that induced proliferation above that seen in the wells receiving no peptides were considered to be stimulatory.

Sequence	CD4+ T cell proliferation in response to peptide, above background (no peptide)
KFRLLQETMYMTVSI [Pep61, cyclin B1 amino acids 215-229]	show proliferation
LQETMYMTVSIIDRF [Pep62, cyclin B1 amino acids 219-233]	show proliferation
MYMTVSIIDRFM [Pep63, cyclin B1 amino acids 223-234]	show proliferation
